Ten compounds from patent publication US20140154182A1 (priority 2011, published 2014) can be followed below.

One data set has as its target NMDAR ion channel. Put plainly: Competition binding assay against [3H]MK-801 in rat forebrain membranes. Particulars: against 5 nM [3H]MK-801; mean±SEM of 2-6 independent determinations, each in triplicate. The procedure: Male Wistar rats (150-200 g) were killed by decapitation. The forebrains were rapidly removed and homogenized using a DUALL tissue homogenizer (10 strokes, 2000 rpm), in a 7-fold excess (v/w) of ice-cold 0.25 M sucrose. The nuclei and cell debris were removed by centrifugation (10 min x 400×g) in a Sorvall RC-6 refrigerated centrifuge (rotor SA600). The supernatant was decanted and the resulting pellet was rehomogenized in 5 vol 0.25 M sucrose and recentrifuged. The combined supernatants were diluted in Tris-acetate buffer (50 mM, pH 7.4) to a final dilution of 40 v/w, and centrifuged for 30 min×30,000×g, in order to obtain membranes from the cell surface, mitochondrial, and microsomal fractions. The pellet was resuspended in 20 vol of 50 mM Tris buffer containing 0.04% Triton X-100 (pH 7.4), and was kept at 25° C. for 2 hr before recentrifugation. The resulting pellet was suspended in Tris-HCl buffer (dilution 4, pH 7.4) and stored at −80° C. in 5 ml aliquots. On the day of each experiment, membranes were thawed to room temperature and washed twice by centrifugation (30 min×200,000×g). After the final centrifugation step, pellets were suspended in 50 mM Tris-HCl buffer (pH 7.4) and further diluted to 40 vol of buffer per g original weight wet tissue for competition binding experiments.
Protein concentration was determined using the BCA protein kit (Sigma-Aldrich, The Netherlands).
In vitro competition binding experiments were performed using 5 nM [^3H]MK-801 (specific activity 22.5 Ci/mmol; PerkinElmer, USA). All compounds as prepared in the Examples and listed in Table 2 were dissolved as 10 mM stock solutions in DMSO, and used in a concentration range from 10^−4 to 10^−12 M, with a maximal DMSO concentration of 1%. Competition binding experiments were conducted at room temperature, in a final volume of 500 μl assay buffer (50 mM Tris-HCl, pH 7.4), containing 1 μM L-glutamate and glycine. The incubation mixture was composed of 400 μl membrane suspension (protein concentration 1 μg/μL), 50 μL [^3H]MK-801, 45 μl assay buffer and 5 μl unlabeled drug solution. Nonspecific binding was determined in the presence of 30 μM GMOM. Incubations were terminated overnight by filtration, using a 48-well Brandel harvester and Whatman GF/B filters, presoaked in 0.3% polyethyleneimine. The filters were washed three times with 3 ml of ice-cold Tris-HCl buffer (pH 7.4), and radioactivity was subsequently determined by liquid scintillation spectrometry in 5 mL of Optiphase-HiSafe 3, at an efficiency of 40%.
Ki values were determined by nonlinear regression analysis using the equation: log EC50=log [10̂log Ki*(1+RadioligandNM/HotKdNM)], (GraphPad Software Inc., San Diego, Calif.).
In this table the Ki for the different compounds is stated. The Ki as measured against 5 nM [^3H]MK-801 and represent the mean±SEM Ki values of 2-6 independent determinations, each conducted in triplicate, The indexes (b), (c) and (d) describe the form in which the compound was tested: (b) fumaric acid salt, (c) free base, (d) hydrochloric acid salt.

The next data set is described as follows: physchem. The data set is classed as physicochemical. Particulars: 1-octanol / 0.2M phosphate buffer pH 7.4, room temperature, triplicate; read-out: LogDoct,7.4. The procedure: The distribution of the radio labeled compounds between 1-octanol and 0.2M phosphate buffer (pH=7.4) was measured in triplicate at room temperature. Briefly, 1 mL of a 20 MBq/mL solution of the radio labeled compound in 0.2M phosphate buffer (pH=7.4) was vigorously mixed with 1 mL of 1-octanol for 1 min at room temperature using a vortex. After a settling period of 30 min, five samples of 100 μL were taken from both layers. For determining recovery, 5 samples of 100 μL were taken from the 20 MBq/mL solution. All samples were counted for radioactivity. The LogDoct,7.4 value was calculated according to LogDoct,7.4=^10Log(Aoct/Abuffer), where Aoct and Abuffer represent the average radioactivity counted of the 5 1-octanol and 5 buffer samples, respectively.

Data set [1] is classed as in vivo, B6C3 mice. The conditions noted are these: for organ with the highest uptake: 5 min following tracer injection, blood, heart, lungs, liver, kidney; for DAR (differential absorption ratio), cerebellum / DAR (differential absorption ratio), cerebral cortex / DAR (differential absorption ratio), hippocampus / DAR (differential absorption ratio), prefrontal cortex / DAR (differential absorption ratio), striatum: 5 min post-injection, i.v.; for DAR (differential absorption ratio), cerebellum / DAR (differential absorption ratio), cerebral cortex / DAR (differential absorption ratio), hippocampus / DAR (differential absorption ratio), prefrontal cortex / DAR (differential absorption ratio), striatum / time of highest ratio of radioactivity uptake between forebrain regions and the cerebellum: mice; for clearance of radioactivity from the brain: mouse, in vivo; for time of highest ratio of radioactivity uptake between forebrain regions and the cerebellum: post-injection. As for the experimental part:
Male, 7-9 weeks old, B6C3 mice were used in all experiments. Animals were anaesthetized with an i.p. injection of Hypnorm/dormicum (12 ml/kg), after which [^18F]PK209 (as prepared in Example 26) (19.0±1.1 MBq at t0) or [^11C]PK083 (as prepared in Example 22) (24.4±3.5 MBq at t0) was administered via the tail vein, in a saline solution containing 10% ethanol (5 ml/kg). Following the injections, mice were killed by cervical dislocation at 5, 10, 30, or 60 min (n=4−6). At each time point, blood was obtained by heart punctures and selected organs, including the heart, liver, kidneys, lungs and brain were removed. The brain was further dissected into prefrontal cortex, striatum, cerebral cortex, hippocampus and cerebellum. All organs and brain areas were weighed, and recovered radioactivity was determined with a Compugamma (LKB Wallac), using 5×10 μl aliquots of the injected formulation as standard. Results are expressed as the differential absorption ratio (DAR): (cpm recovered/g tissue)/(cpm injected/g body weight). Two-way repeated measures ANOVA, followed by LSD post-hoc analysis was used for between-region (or organ) comparisons of radiotracer uptake at different time points.

A further data set concerns NMDA receptors. Put plainly: Ex vivo autoradiography and MK-801 blocking study. The data set is classed as in vivo, mice. As for the experimental part: To visualize the distribution and specificity of [^18F]PK209 or [^11C]PK083 for NMDA receptors, anaesthetized mice were injected with either saline or MK-801 (0.6 mg/kg, i.p.), 10 min before a tail-vein injection of each of the radiolabeled compounds (n=2). 5 min following injection of [^11C]PK083 or 15 min after [^18F]PK209 injection, mice were killed by cervical dislocation, and their brains were removed, frozen in liquid nitrogen and processed for quantitative autoradiography. Briefly, 20 μm coronal brain sections were cut at 300 μm intervals, from rostral to caudal areas. Sections from each mouse were opposed to Kodak Biomax MR-1 film, either immediately or following 2×30 sec washes in ice-cold Tris-HCl buffer (pH 7.4) and a dip in ice-cold demi water. Films were developed after 24 hr, and relevant optical density (ROD) values were obtained using the MCID software. Sections from control and MK-801 treated mice were processed in parallel. All brain regions were identified by reference to the mouse atlas of Franklin and Paxinos (2001).
Reference is made to FIG. 3. […] FIG. 3A the [^18F]209 specific binding (relevant optical density) is shown for (from left to right) frontal cortex, striatum, hippocampus, cerebral cortex and cerebellum. In FIG. 3B representative images are shown for (from bottom to top) cerebellum, hippocampus, striatum, cerebral cortex and frontal cortex.
Specific binding was defined as that […] pretreatment with MK-801 (0.6 mg/kg i.p.). […] Specific [^18F]PK-209 binding constituted 10% and 8% of total binding values in the hippocampus and the cerebral cortex, respectively.

The mark [2] stands for this setting: quantitative autoradiography, relevant optical density.

The term Ki denotes a measure of affinity in units of concentration, obtained from inhibition or displacement.

`CSc1ccc(Cl)c(NC(=N)N(C)c2cccc(O)c2)c1` [compound 17, 3-(2-chloro-5-(methylthio)phenyl)-1-(3-hydroxyphenyl)-1-methylguanidine] displayed a Ki on NMDAR ion channel of 0.551 ± 0.0578 µM.
Same read-out and setting: as for `CSc1ccc(Cl)c(NC(=N)Nc2cccc(OC(F)(F)F)c2)c1` [compound 8, 1-(2-chloro-5-(methylthio)phenyl)-3-(3-(trifluoromethoxy)phenyl)guanidine], the figure is 0.235 ± 0.0555 µM.
The same measure, in the same setting: for `CSc1ccc(Cl)c(NC(=N)N(C)c2cccc(OC(F)(F)F)c2)c1` [compound 19, 3-(2-chloro-5-(methylthio)phenyl)-1-methyl-1-(3-(trifluoromethoxy)phenyl)guanidine] the value was 0.012 ± 0.002 µM; for `COc1cccc(N(C)C(=N)Nc2cc(SC)ccc2Cl)c1` [compound 14, reference compound], 0.0217 ± 0.0022 µM; for `CSc1ccc(Cl)c(NC(=N)N(C)c2cccc(OC(F)F)c2)c1` [compound 18, 3-(2-chloro-5-(methylthio)phenyl)-1-(3-(difluoromethoxy)phenyl)-1-methylguanidine], 0.01 ± 0.002 µM.
The same measure, in the same setting: for `CSc1ccc(Cl)c(NC(=N)N(C)c2cccc(OC(F)(F)C(F)F)c2)c1` [compound 20, 3-(2-chloro-5-(methylthio)phenyl)-1-methyl-1-(3-(1,1,2,2-tetrafluoroethoxy)phenyl)guanidine] the value was 0.0567 ± 0.0062 µM.
The compound `CSc1ccc(Cl)c(NC(=N)Nc2cccc(OC(F)F)c2)c1` [compound 7, 1-(2-chloro-5-(methylthio)phenyl)-3-(3-(difluoromethoxy)phenyl)guanidine] registered a Ki at NMDAR ion channel of 0.147 ± 0.015 µM.
Turning to `CSc1ccc(Cl)c(NC(=N)N(C)c2cccc(OCCCF)c2)c1` [compound 23, 3-(2-chloro-5-(methylthio)phenyl)-1-(3-(3-fluoropropoxy)phenyl)-1-methylguanidine], the affinity at NMDAR ion channel, expressed as Ki, was 0.179 ± 0.039 µM.
`CSc1ccc(Cl)c(NC(=N)N([11CH3])c2cccc(OC(F)F)c2)c1` [[^11C]PK083, 1-(2-chloro-5-(methylthio)phenyl)-3-^11C-methyl-3-(3-(difluoromethoxy)phenyl)guanidine]: the logD in the data set “physchem” was found to be 1.76 ± 0.01. For the same compound, in data set [1], the “organ with the highest uptake” value was “lungs”; the “DAR (differential absorption ratio), cerebellum” value is 0.55±0.07; the “DAR (differential absorption ratio), cerebral cortex” value came out at 0.83±0.11; the “DAR (differential absorption ratio), hippocampus” value is given as 1.41±0.46. For the same compound, in data set [1], the “DAR (differential absorption ratio), prefrontal cortex” value worked out at 0.96±0.16; the “DAR (differential absorption ratio), striatum” value amounted to 0.86±0.13; the “clearance of radioactivity from the brain” value was “rapidly cleared”; the “time of highest ratio of radioactivity uptake between forebrain regions and the cerebellum” value was 5 min.
On to `CSc1ccc(Cl)c(NC(=N)N(C)c2cccc(OC[18F])c2)c1` [[^18F]PK209], for which the logD in the data set “physchem” worked out at 1.45 ± 0.02. For the same compound, the “specific binding as share of total binding, cerebral cortex” value in the data set with NMDA receptors (15 min after injection, MK-801 0.6 mg/kg i.p. pretreatment) came out at 8%. In the data set on NMDA receptors (setting [2]), the “binding level, cerebellum” value is listed as “moderate”; the “binding level, cerebral cortex” value was “high”; the “binding level, frontal cortex” value is “low”; the “binding level, hippocampus” value is reported as “high”. In the data set on NMDA receptors (setting [2]), the “binding level, striatum” value is on record as “low”. In data set [1], the “organ with the highest uptake” value is “lungs”; the “DAR (differential absorption ratio), cerebellum” value turned out to be 0.84±0.09; the “DAR (differential absorption ratio), cerebral cortex” value is 1.17±0.07; the “DAR (differential absorption ratio), hippocampus” value came to 1.05±0.09. Also, in data set [1], the “DAR (differential absorption ratio), prefrontal cortex” value is given as 1.19±0.10; the “DAR (differential absorption ratio), striatum” value turned out to be 1.19±0.15; the “clearance of radioactivity from the brain” value was “cleared rapidly”; the “time of highest ratio of radioactivity uptake between forebrain regions and the cerebellum” value stood at 15 min.
